Results as given in US10745398B2, “2-(het)aryl-substituted fused heterocycle derivatives as pesticides” (Bayer CropScience Aktiengesellschaft, priority 2015, dated 2020).

How the values were obtained:
[1] = log P (neutral) by HPLC on reversed-phase column (C 18), EEC Directive 79/831 Annex V.A8; format: physicochemical; conditions: HPLC reversed-phase C 18, 55° C., neutral range pH 7.8, ammonium hydrogencarbonate/acetonitrile; for chromatographic logP: reversed-phase HPLC column (C 18)
[2] = tested on: caterpillars of the armyworm (Spodoptera frugiperda); test: Spodoptera frugiperda - spray test; format: in vivo; conditions: application rate 500 g/ha, maize leaf discs, after 7 days
Description: (§1) Solvent: 78.0 parts by weight of acetone • • 1.5 parts by weight of dimethylformamide
(§2) Emulsifier: alkylaryl polyglycol ether
(§3) To produce a suitable active compound preparation, 1 part by weight of active compound is dissolved with the stated parts by weight of solvent and made up with water containing an emulsifier concentration of 1000 ppm until the desired concentration is attained. To produce further test concentrations, the preparation is diluted with emulsifier-containing water.
Leaf discs of maize (Zea mays) are sprayed with an active compound preparation of the desired concentration and, after drying, populated with caterpillars of the armyworm (Spodoptera frugiperda).
After 7 days, the efficacy in % is determined. 100% means that all the caterpillars have been killed; 0% means that no caterpillar has been killed.

[3] = tested on: L1 larvae of the Australian sheep blowfly (Lucilia cuprina); test: Lucilia cuprina test; format: in vivo; conditions: application rate 100 ppm, after 2 days
Description: (§4) Solvent: dimethyl sulphoxide
(§5) To produce a suitable active compound preparation, 10 mg of active compound are mixed with 0.5 ml of dimethyl sulphoxide, and the concentrate is diluted with water to the desired concentration.
About 20 L1 larvae of the Australian sheep blowfly (Lucilia cuprina) are transferred into a test vessel containing minced horsemeat and the active compound preparation of the desired concentration.
After 2 days, the kill in % is determined. 100% means that all the larvae have been killed; 0% means that no larvae have been killed.

[4] = tested on: adult houseflies (Musca domestica); test: Musca domestica test; format: in vivo; conditions: application rate 100 ppm, after 2 days
Description: as §4, §5
Vessels containing a sponge treated with sugar solution and the active compound preparation of the desired concentration are populated with 10 adult houseflies (Musca domestica).
After 2 days, the kill in % is determined. 100% means that all of the flies have been killed; 0% means that none of the flies have been killed.

[5] = tested on: larvae of the mustard beetle (Phaedon cochleariae); test: Phaedon cochleariae - spray test; format: in vivo; conditions: application rate 500 g/ha, Chinese cabbage leaf discs, after 7 days
Description: as §1, §2, §3
After 7 days, the efficacy in % is determined. 100% means that all the beetle larvae have been killed; 0% means that no beetle larvae have been killed.

[6] = tested on: green peach aphid (Myzus persicae); test: Myzus persicae - spray test; format: in vivo; conditions: application rate 500 g/ha, Chinese cabbage leaf discs, after 5-6 days
Description: Solvent: 78 parts by weight of acetone • • 1.5 parts by weight of dimethylformamide
as §2, §3
Discs of Chinese cabbage leaves (Brassica pekinensis) infested by all stages of the green peach aphid (Myzus persicae) are sprayed with an active compound preparation of the desired concentration.
After 5-6 days, the efficacy in % is determined. 100% means that all the aphids have been killed; 0% means that no aphids have been killed.

[7] = tested on: engorged adult female cattle ticks (Boophilus microplus); test: Boophilus microplus - injection test; format: in vivo; conditions: application rate 20 μg/animal, assessed after 7 days
Description: as §4
To produce a suitable active compound preparation, 10 mg of active compound are mixed with 0.5 ml of solvent and the concentrate is diluted with solvent to the desired concentration.
1 μl of the active compound solution is injected into the abdomen of 5 engorged adult female cattle ticks (Boophilus microplus). The animals are transferred into dishes and kept in a climate-controlled room.
Efficacy is assessed after 7 days by laying of fertile eggs. Eggs which are not visibly fertile are stored in a climate-controlled cabinet until the larvae hatch after about 42 days. An efficacy of 100% means that none of the ticks has laid any fertile eggs; 0% means that all the eggs are fertile.

[8] = tested on: unfed adult cat fleas (Ctenocephalides felis); test: Ctenocephalides felis - oral test; format: in vivo; conditions: application rate 100 ppm in citrated cattle blood, after 2 days
Description: as §4
To produce a suitable active compound preparation, 10 mg of active compound are mixed with 0.5 ml of dimethyl sulphoxide. Dilution with citrated cattle blood gives the desired concentration.
About 20 unfed adult cat fleas (Ctenocephalides felis) are placed into a chamber which is closed at the top and bottom with gauze. A metal cylinder whose bottom end is closed with parafilm is placed onto the chamber. The cylinder contains the blood/active compound preparation, which can be imbibed by the fleas through the parafilm membrane.
After 2 days, the kill in % is determined. 100% means that all of the fleas have been killed; 0% means that none of the fleas have been killed.

[9] = tested on: southern root-knot nematode (Meloidogyne incognita); test: Meloidogyne incognita test; format: in vivo; conditions: application rate 20 ppm, lettuce, after 14 days
Description: Solvent: 125.0 parts by weight of acetone
To produce a suitable preparation of active compound, 1 part by weight of active compound is mixed with the stated amount of solvent and the concentrate is diluted with water to the desired concentration.
Vessels are filled with sand, active compound solution, an egg/larvae suspension of the southern root-knot nematode (Meloidogyne incognita) and lettuce seeds. The lettuce seeds germinate and the plants develop. The galls develop on the roots.
After 14 days, the nematicidal efficacy in % is determined by the formation of galls. 100% means that no galls were found; 0% means that the number of galls on the treated plants corresponds to the untreated control.

[10] = tested on: adult cat fleas (Ctenocephalides felis); test: Ctenocephalides felis - in vitro contact tests with adult cat fleas; format: in vivo; conditions: application rate 5 μg/cm^2 (500 g/ha), after 48 h
Description: For the coating of the test tubes, 9 mg of active compound are first dissolved in 1 ml of acetone p.a. and then diluted to the desired concentration with acetone p.a. 250 μl of the solution are distributed homogeneously on the inner walls and the base of a 25 ml test tube by turning and rocking on an orbital shaker (rocking rotation at 30 rpm for 2 h). With 900 ppm active compound solution and internal surface 44.7 cm^2, given homogeneous distribution, an area-based dose of 5 μg/cm^2 is achieved.
After the solvent has evaporated off, the tubes are populated with 5-10 adult cat fleas (Ctenocephalides felis), sealed with a perforated plastic lid and incubated in a horizontal position at room temperature and ambient humidity. After 48 h, efficacy is determined. To this end, the test tubes are stood upright and the fleas are knocked to the base of the tube. Fleas which remain motionless at the base or move in an uncoordinated manner are considered to be dead or moribund.
100% efficacy means that all the fleas were dead or moribund. 0% efficacy means that no fleas were harmed.

[11] = tested on: greenhouse red spider mite (Tetranychus urticae); test: Tetranychus urticae - spray test, OP-resistant; format: in vivo; conditions: application rate 500 g/ha, bean leaf discs, after 6 days
Description: as §1, §2, §3
Discs of bean leaves (Phaseolus vulgaris) infested with all stages of the greenhouse red spider mite (Tetranychus urticae) are sprayed with an active compound preparation of the desired concentration.
After 6 days, the efficacy in % is determined. 100% means that all the spider mites have been killed; 0% means that no spider mites have been killed.

| Compound | chromatographic logP [1] | efficacy (caterpillars killed) [2] | efficacy (kill in %) [3] | efficacy (kill in %) [4] | efficacy (beetle larvae killed) [5] | efficacy (aphids killed) [6] | efficacy (no laying of fertile eggs) [7] | log P (neutral) [1] | efficacy (kill in %) [8] | nematicidal efficacy (formation of galls) [9] | efficacy (fleas dead or moribund) [10] | efficacy (spider mites killed) [11] |
| --- | --- | --- | --- | --- | --- | --- | --- | --- | --- | --- | --- | --- |
| CCS(=O)(=O)c1ccc(-n2cnn(-c3ccc(Cl)cc3Cl)c2=O)nc1-c1nc2cc(C(F)(F)F)ncc2n1C [Example I-2, 2-(2,4-Dichlorophenyl)-4-[5-ethylsulfonyl-6-[3-methyl-6-(trifluoromethyl)imidazo[4,5-c]pyridin-2-yl]-2-pyridyl]-1,2,4-triazol-3-one] | 3.71 | 100% | 100% | 90% | 100% |  |  |  |  |  |  |  |
| CCS(=O)(=O)c1ccc(-n2ccn(-c3ccc(Br)cc3)c2=O)nc1-c1nc2cc(C(F)(F)F)ncc2n1C [Example I-3] |  | 100% | 100% | 90% | 100% | 90% | 95% | Example I-3: logP (neutral): 3.87 ^1H-NMR(400.0 MHz, d6-DMSO): δ = | 100% |  |  |  |
| CCS(=O)(=O)c1ccc(-n2ncn(-c3ccc(F)cc3)c2=O)nc1-c1nc2cc(C(F)(F)F)ncc2n1C [Example I-8] |  | 100% |  |  | 100% | 100% |  | Example I-8: logP (neutral): 2.75 ^1H-NMR(400.0 MHz, d6-DMSO): δ = |  | 90% |  |  |
| CCS(=O)(=O)c1ccc(-n2ncn(-c3ccc(Br)cc3)c2=O)nc1-c1nc2cc(C(F)(F)F)ncc2n1C [Example I-16] |  | 100% | 100% | 80% | 100% |  |  |  | 100% |  |  |  |
| CCS(=O)(=O)c1ccc(-n2ncn(-c3ccccc3F)c2=O)nc1-c1nc2cc(C(F)(F)F)ncc2n1C [Example I-18] |  | 100% | 100% | 85% | 100% | 90% | 95% | Example I-18: logP (neutral): 2.73: 1H-NMR(400.0 MHz, d6-DMSO): □ = | 100% |  | 100% |  |
| CCS(=O)(=O)c1ccc(-n2ncn(-c3ccc(Cl)cc3)c2=O)nc1-c1nc2cc(C(F)(F)F)ncc2n1C [Example I-19] |  | 100% | 100% | 80% | 100% |  | 80% | Example I-19: logP (neutral): 2.82 1H-NMR(400.0 MHz, d6-DMSO): □ = | 100% |  |  |  |
| CCS(=O)(=O)c1ccc(-n2ccc(-c3ncccc3Cl)n2)nc1-c1nc2cc(C(F)(F)F)ncc2n1C [Example I-24] |  | 100% | 100% |  | 100% |  |  | Example I-24: logP (neutral): 2.80 1H-NMR(400.0 MHz, d6-DMSO): □ = |  |  | 100% |  |
| CCS(=O)(=O)c1ccc(-c2ccn(-c3cccnc3)n2)nc1-c1nc2cc(C(F)(F)F)ncc2n1C [Example I-30, 2-{3-(Ethylsulfonyl)-6-[1-(pyridin-3-yl)-1H-pyrazol-3-yl]pyridin-2-yl}-3-methyl-6-(trifluoromethyl)-3H-imidazo[4,5-c]pyridine] | 2.73 | 100% | 100% |  | 100% | 100% |  |  |  | 90% |  |  |
| CCS(=O)(=O)c1ccc(-n2cnn(-c3ccccc3F)c2=O)nc1-c1nc2cc(C(F)(F)F)cnc2n1C [Example I-32] |  | 100% | 100% | 100% | 100% | 90% | 80% | Example I-32: logP (neutral): 3.52 1H-NMR(400.0 MHz, d6-DMSO): □ = | 100% |  |  |  |
| CCS(=O)(=O)c1ccc(-n2ncn(-c3ccc(Cl)cc3)c2=O)nc1-c1nc2cc(C(F)(F)F)cnc2n1C [Example I-33, 4-(4-Chlorophenyl)-2-{5-(ethylsulfonyl)-6-[3-methyl-6-(trifluoromethyl)-3H-imidazo[4,5-b]pyridin-2-yl]pyridin-2-yl}-2,4-dihydro-3H-1,2,4-triazol-3-one] | 3.52 | 100% |  |  | 100% | 90% |  |  |  | 100% |  | 90% |
